In ChEMBL document CHEMBL1139626, “Total asymmetric synthesis of (-)-conduramine B-1 and of its enantiomer. N-Benzyl derivatives of conduramine B-1 are beta-glucosidase inhibitors” (Bioorg Med Chem Lett, 2005):
Active and inactive are the calls of the source. The rule behind the calls is not given here.

Columns and labels:
[1] = molecular target: T1, Glucoamylase 1 (Rhizopus oryzae) (UniProt P07683); assay: Inhibition against Amyloglucosidase from Rhizopus mold at 1 mM; (ni=no inhibition)
T1 sequence (whole entry): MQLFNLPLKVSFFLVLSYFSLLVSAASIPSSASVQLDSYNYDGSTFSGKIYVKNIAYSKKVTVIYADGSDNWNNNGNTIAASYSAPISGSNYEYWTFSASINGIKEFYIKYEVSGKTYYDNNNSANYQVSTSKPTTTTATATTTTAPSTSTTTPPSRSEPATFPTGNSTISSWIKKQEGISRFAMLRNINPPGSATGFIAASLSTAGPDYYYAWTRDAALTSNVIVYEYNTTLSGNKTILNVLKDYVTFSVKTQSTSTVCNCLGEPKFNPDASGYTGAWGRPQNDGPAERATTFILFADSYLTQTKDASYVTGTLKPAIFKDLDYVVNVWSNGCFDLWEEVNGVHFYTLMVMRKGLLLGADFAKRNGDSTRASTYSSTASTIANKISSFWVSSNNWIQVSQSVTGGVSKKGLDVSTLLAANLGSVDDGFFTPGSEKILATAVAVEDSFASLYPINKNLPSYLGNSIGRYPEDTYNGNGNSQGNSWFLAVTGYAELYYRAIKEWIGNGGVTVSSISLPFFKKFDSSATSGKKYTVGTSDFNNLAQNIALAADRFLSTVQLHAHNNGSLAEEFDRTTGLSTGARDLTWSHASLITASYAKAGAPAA

[2] = molecular target: Beta-glucosidase A (Caldicellulosiruptor saccharolyticus) (UniProt P10482); assay: Percent inhibition against Beta Glucosidase from Caldocellum saccharolyticum at 1 mM
[3] = tested on: Prunus dulcis; assay: Percent inhibition against Beta Glucosidase from Almonds at 1 mM
[4] = molecular target: T2, Exo-1,4-beta-xylosidase xlnD (Aspergillus niger) (UniProt O00089); assay: Inhibition against Beta-xylosidase from Aspergillus niger at 1 mM; (ni=no inhibition)
T2 sequence (whole entry): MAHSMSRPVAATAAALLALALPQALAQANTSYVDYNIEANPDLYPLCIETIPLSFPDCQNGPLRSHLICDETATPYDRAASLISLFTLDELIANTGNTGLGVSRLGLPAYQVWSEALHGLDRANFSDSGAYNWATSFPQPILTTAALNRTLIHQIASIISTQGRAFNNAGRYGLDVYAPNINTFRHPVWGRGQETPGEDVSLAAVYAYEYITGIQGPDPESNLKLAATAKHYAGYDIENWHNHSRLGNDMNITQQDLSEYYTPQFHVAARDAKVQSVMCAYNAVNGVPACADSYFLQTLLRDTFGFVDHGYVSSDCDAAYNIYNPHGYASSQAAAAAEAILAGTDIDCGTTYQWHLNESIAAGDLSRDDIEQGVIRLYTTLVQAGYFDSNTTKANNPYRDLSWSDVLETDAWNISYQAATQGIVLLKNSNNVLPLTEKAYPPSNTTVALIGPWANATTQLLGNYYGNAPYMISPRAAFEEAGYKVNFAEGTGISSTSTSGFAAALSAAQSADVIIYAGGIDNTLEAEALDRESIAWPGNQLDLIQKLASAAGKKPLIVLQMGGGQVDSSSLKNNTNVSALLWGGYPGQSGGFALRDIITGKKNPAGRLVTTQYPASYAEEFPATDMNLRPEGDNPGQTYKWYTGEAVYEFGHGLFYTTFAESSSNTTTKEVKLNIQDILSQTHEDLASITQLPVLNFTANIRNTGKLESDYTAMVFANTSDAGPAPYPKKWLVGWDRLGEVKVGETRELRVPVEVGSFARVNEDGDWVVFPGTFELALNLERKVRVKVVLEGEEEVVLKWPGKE

[5] = molecular target: Glucoamylase (Aspergillus niger) (UniProt P69328); assay: Inhibition against Amyloglucosidase from Aspergillus niger at 1 mM; (ni=no inhibition)
[6] = molecular target: T3, Alpha-glucosidase (Oryza sativa Japonica Group) (UniProt Q9LGC6); assay: Inhibition against Alpha Glucosidase from rice at 1 mM; (ni=no inhibition)
T3 sequence (whole entry): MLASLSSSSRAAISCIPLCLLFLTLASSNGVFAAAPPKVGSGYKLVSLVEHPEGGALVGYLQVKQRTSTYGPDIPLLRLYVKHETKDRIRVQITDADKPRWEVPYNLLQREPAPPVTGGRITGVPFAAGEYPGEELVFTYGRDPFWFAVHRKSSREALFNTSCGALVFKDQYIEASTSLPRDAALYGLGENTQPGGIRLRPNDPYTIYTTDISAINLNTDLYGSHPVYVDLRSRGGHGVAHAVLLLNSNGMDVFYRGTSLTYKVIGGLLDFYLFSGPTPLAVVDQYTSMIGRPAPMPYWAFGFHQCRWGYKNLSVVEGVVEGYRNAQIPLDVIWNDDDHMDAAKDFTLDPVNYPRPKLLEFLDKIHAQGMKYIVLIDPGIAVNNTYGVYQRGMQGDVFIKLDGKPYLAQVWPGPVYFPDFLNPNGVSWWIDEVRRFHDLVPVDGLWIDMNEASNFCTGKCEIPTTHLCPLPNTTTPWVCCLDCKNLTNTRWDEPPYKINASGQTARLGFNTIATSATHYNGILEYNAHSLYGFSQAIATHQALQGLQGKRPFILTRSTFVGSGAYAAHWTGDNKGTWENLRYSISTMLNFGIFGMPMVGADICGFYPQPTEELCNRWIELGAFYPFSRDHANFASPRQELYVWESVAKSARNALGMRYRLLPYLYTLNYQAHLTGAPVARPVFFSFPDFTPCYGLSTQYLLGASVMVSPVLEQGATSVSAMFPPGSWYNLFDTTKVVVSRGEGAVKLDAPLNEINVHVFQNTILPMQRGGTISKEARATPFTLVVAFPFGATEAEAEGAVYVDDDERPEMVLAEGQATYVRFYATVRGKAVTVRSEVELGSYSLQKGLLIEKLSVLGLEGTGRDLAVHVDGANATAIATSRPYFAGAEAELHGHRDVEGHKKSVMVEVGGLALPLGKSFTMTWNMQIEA

[7] = Inhibition against Alpha Glucosidase from yeast at 1 mM; (ni=no inhibition)
[8] = Inhibitory concentration against Beta Glucosidase from Almonds; design: species or system Prunus dulcis
[9] = molecular target: Beta-glucosidase A (Caldicellulosiruptor saccharolyticus) (UniProt P10482); assay: Inhibition against Beta Glucosidase from Caldocellum saccharolyticum at 1 mM; (ni=no inhibition)
[10] = tested on: Prunus dulcis; assay: Inhibition against Beta Glucosidase from Almonds at 1 mM; (ni=no inhibition)
[11] = molecular target: T1, Glucoamylase 1 (Rhizopus oryzae); assay: Percent inhibition against Amyloglucosidase from Rhizopus mold at 1 mM
[12] = molecular target: Glucoamylase (Aspergillus niger) (UniProt P69328); assay: Percent inhibition against Amyloglucosidase from Aspergillus niger at 1 mM concentration
[13] = Inhibitory activity against Beta Glucosidase from Almonds; design: species or system Prunus dulcis

Glucoamylase (Aspergillus niger), sequence (P69328 whole entry): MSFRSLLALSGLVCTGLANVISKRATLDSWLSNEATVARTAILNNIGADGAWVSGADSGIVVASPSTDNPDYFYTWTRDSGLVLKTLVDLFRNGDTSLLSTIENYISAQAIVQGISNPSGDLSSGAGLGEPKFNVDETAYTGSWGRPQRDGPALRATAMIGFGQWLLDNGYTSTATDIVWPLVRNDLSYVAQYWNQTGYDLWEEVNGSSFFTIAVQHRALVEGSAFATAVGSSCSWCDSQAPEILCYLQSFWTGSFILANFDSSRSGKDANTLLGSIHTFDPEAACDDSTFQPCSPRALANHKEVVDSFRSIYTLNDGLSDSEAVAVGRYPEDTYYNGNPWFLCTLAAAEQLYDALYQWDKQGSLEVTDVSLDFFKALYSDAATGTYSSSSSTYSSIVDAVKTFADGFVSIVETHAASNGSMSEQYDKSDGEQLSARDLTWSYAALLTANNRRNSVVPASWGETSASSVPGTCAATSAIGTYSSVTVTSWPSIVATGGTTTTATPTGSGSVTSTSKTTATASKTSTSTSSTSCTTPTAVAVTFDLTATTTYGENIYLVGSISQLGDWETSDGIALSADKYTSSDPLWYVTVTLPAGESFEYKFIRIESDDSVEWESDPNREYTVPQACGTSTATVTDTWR
Beta-glucosidase A (Caldicellulosiruptor saccharolyticus), sequence (P10482 whole entry): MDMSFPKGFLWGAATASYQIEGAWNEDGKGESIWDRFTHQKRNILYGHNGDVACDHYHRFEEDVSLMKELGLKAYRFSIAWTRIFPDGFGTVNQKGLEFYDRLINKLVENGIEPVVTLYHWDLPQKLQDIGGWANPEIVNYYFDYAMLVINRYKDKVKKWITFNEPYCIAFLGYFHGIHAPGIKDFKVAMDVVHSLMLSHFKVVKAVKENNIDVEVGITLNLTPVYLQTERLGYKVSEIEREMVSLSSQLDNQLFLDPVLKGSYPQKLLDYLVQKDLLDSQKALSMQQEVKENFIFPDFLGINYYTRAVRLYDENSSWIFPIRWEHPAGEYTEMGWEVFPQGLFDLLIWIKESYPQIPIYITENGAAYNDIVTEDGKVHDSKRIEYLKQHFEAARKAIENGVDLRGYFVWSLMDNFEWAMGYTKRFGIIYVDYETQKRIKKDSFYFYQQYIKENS

| SMILES | inhibition [1] | inhibition [2] [%] | inhibition [3] [%] | inhibition [4] | inhibition [5] | inhibition [6] | inhibition [7] | IC50 [8] [µM] | inhibition [9] | inhibition [10] | inhibition [11] [%] | inhibition [12] [%] | Ki [13] [µM] |
| --- | --- | --- | --- | --- | --- | --- | --- | --- | --- | --- | --- | --- | --- |
| OC1C=CC(NCc2ccc(Oc3ccccc3)cc2)C(O)C1O (stereo in doubt; 4j) | inactive | 71 | 97 | inactive | inactive | inactive | inactive |  |  |  |  |  |  |
| CCCCCCNC1C=CC(O)C(O)C1O (racemic) | inactive |  | 92 | inactive | inactive | inactive | inactive | 32 |  |  |  |  |  |
| OC1C=CC(NCc2ccc(-c3ccccc3)cc2)C(O)C1O (stereo in doubt; 4i) | inactive | 94 | 97 | inactive | inactive | inactive | inactive |  |  |  |  |  |  |
| OC1C=CC(NCc2ccc(-c3ccccc3)cc2)C(O)C1O (stereo in doubt) | inactive |  | 56 | inactive | inactive | inactive | inactive |  | inactive |  |  |  |  |
| COc1cc(O)c(CNC2C=CC(O)C(O)C2O)c(Br)c1 (single isomer, unassigned) | inactive |  |  | inactive | inactive | inactive | inactive |  | inactive | inactive |  |  |  |
| NC1C=CC(O)C(O)C1O (single isomer, unassigned; (-)) | inactive |  |  | inactive | inactive | inactive | inactive |  | inactive | inactive |  |  |  |
| OC1C=CC(NCc2ccc(Cl)cc2)C(O)C1O (stereo in doubt; 4h) | inactive | 84 | 96 | inactive | inactive | inactive | inactive |  |  |  |  |  |  |
| OC1C=CC(N(CCc2ccccc2)CCc2ccccc2)C(O)C1O (racemic) | inactive |  | 36 | inactive | inactive | inactive | inactive |  | inactive |  |  |  |  |
| OC1C=CC(NCCc2ccccc2)C(O)C1O (racemic) | inactive |  | 86 | inactive | inactive | inactive | inactive | 32 |  |  |  |  |  |
| Oc1ccc(CNC2C=CC(O)C(O)C2O)cc1 (stereo in doubt) |  |  | 26 | inactive |  | inactive | inactive |  | inactive |  | 85 | 94 |  |
| NC1C=CC(O)C(O)C1O (stereo in doubt; (+)-3) | inactive |  |  | inactive | inactive | inactive | inactive |  | inactive | inactive |  |  |  |
| OC1C=CC(NCc2ccccc2)C(O)C1O (stereo in doubt; 4e) |  |  |  |  |  |  |  | 32 |  |  |  |  | 10 |
| Oc1ccccc1CNC1C=CC(O)C(O)C1O (stereo in doubt) |  |  |  | inactive |  | inactive | inactive |  | inactive | inactive | 41 | 42 |  |
| COc1cc(O)c(CNC2C=CC(O)C(O)C2O)c(Br)c1 (stereo in doubt; 4l) | inactive | 43 |  | inactive | inactive | inactive | inactive |  |  | inactive |  |  |  |
| OC1C=CC(NCc2ccc(Cl)cc2)C(O)C1O (stereo in doubt) |  |  | 51 | inactive |  | inactive | inactive |  | inactive |  | 72 | 45 |  |
| COc1ccc(CNC2C=CC(O)C(O)C2O)cc1 (stereo in doubt; 4g) |  |  |  |  |  |  |  | 52 |  |  |  |  | 25 |
| CCCN(CCC)C1C=CC(O)C(O)C1O (racemic) | inactive |  | 36 | inactive | inactive | inactive | inactive |  | inactive |  |  |  |  |
| OC1C=CC(NCc2ccccc2)C(O)C1O (stereo in doubt) |  |  | 51 | inactive |  | inactive | inactive |  | inactive |  | 72 | 63 |  |
| Oc1ccc(CNC2C=CC(O)C(O)C2O)cc1 (stereo in doubt; 4f) |  |  |  |  |  |  |  | 72 |  |  |  |  |  |
| CCCCCCCCN(CCCCCCCC)C1C=CC(O)C(O)C1O (racemic) | inactive | 83 |  | inactive | inactive | inactive | inactive |  |  | inactive |  |  |  |
| COc1ccc(CNC2C=CC(O)C(O)C2O)cc1 (stereo in doubt) |  |  | 51 | inactive |  | inactive | inactive |  | inactive |  | 72 | 63 |  |
| OC1C=CC(NCc2ccc(Oc3ccccc3)cc2)C(O)C1O (stereo in doubt) | inactive |  |  | inactive | inactive | inactive | inactive |  | inactive | inactive |  |  |  |
